# Experimental data published in ChEMBL document CHEMBL1201862, “PubChem BioAssay data set” (2004).
# Active and inactive are the calls of the source.
# Key:
# [1] = target: NAD-dependent protein deacylase sirtuin-5, mitochondrial (Homo sapiens, UniProt Q9NXA8); test: SIRT5 desuccinylase inhibitors, dose response, biochemical, fluorescence imaging, cherry-pick, set 5 (AID 720591);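 note: desuccinylation of succinyl peptide AMC substrate read as fluorescence after trypsin release; potency of inhibitors that lower fluorescence and may act on trypsin instead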
# Major prion protein = Major prion protein (Homo sapiens, UniProt P04156); type: functional, cell-based
# [2] = cytotoxicity in OVCAR8 ovarian cancer cells, dose response, PAX8 project, cell-based, plate reader, dry powder samples (AID 743197); type: functional; conditions: OVCAR-8
# [3] = A2780 ovarian cancer cell cytotoxicity, dose response, cytotoxicity control, plate reader, dry powder samples (AID 743046); type: functional, cell-based
# Paired box protein Pax-8 = Paired box protein Pax-8 (Homo sapiens, UniProt Q06710); test: inhibitors of PAX8-driven TPO luciferase reporter, dose response, RMG-I cells, cherry-pick (AID 687027); type: functional, cell-based;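 note: luciferase reporter driven by Pax8 target thyroperoxidase promoter measured by SteadyGlo luminescence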
# [4] = HEK293 cell cytotoxicity, dose response, cytotoxicity control, plate reader, cherry-picked samples (AID 743446); type: functional, cell-based
# [5] = NIH:OVCAR-3 ovarian cancer cell cytotoxicity, dose response, PAX8 inhibitor project, plate reader, dry powder samples (AID 743044); type: functional, cell-based
# [6] = MC4R antagonists, dose response, counter-screen for LGR2 antagonist project, cell-based, plate reader, cherry pick (AID 743444); type: functional;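 note: transfected HEK 293 cells stimulated with alpha-MSH peptide; potency of inhibitors of the alpha-MSH evoked signal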
# [7] = non-specific cell cytotoxicity, dose response, cytotoxicity control for PAX8 inhibitor project, plate reader, dry powder samples (AID 743021); type: functional, cell-based
# [8] = A549 cell cytotoxicity, dose response, cytotoxicity control, plate reader, cherry-pick, antagonist series (AID 743412); type: functional, cell-based
# [9] = HepG2 cell cytotoxicity, dose response, cytotoxicity control, plate reader, cherry-pick, antagonist series (AID 743416); type: functional, cell-based
# [10] = LGR2 antagonists, dose response, cell-based, HEK293, CRE-luciferase reporter, cherry pick, set 2 (AID 743343); type: functional;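 note: transfected cells were stimulated with diluted bursicon conditioned medium after compound addition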
# [11] = P. falciparum Dd2 growth inhibitors, dose response, SYBR Green, cherry-picked samples (AID 1159567); type: functional, cell-based
# [12] = HepG2 cell cytotoxicity, dose response, cytotoxicity control, cherry-picked samples (AID 1159577); type: functional, cell-based
compound,measurement,setting,value
NS(=O)(=O)c1cnccc1Nc1ccc(Cl)cc1,AC50,[1],> 30 µM (inactive)
O=C(C1=C(O)C(=O)N(CCN2CCOCC2)C1c1cccc(Br)c1)c1cc2ccccc2o1 (stereo not given),IC50,cells,> 138 µM (inactive)
same,IC50,Major prion protein,3.22 µM (active)
Cn1nc(C(F)(F)F)c(/C=N/OC(=O)c2ccccc2Cl)c1SCc1ccccc1Cl,IC50,cells,> 138 µM (inactive)
same,IC50,Major prion protein,4.68 µM (active)
C[C@@H]1CN([C@@H](C)CO)C(=O)c2cc(NC(=O)Nc3ccc(C(F)(F)F)cc3)ccc2O[C@@H](C)CCCCO[C@H]1CN(C)C(=O)c1ccccc1,AC50,[2],> 70 µM (inactive)
same,AC50,[3],54.3 µM (active)
same,AC50,Paired box protein Pax-8,5.18 µM (active)
C[C@H](CO)N1C[C@H](C)[C@@H](CN(C)Cc2ccc(Cl)c(Cl)c2)OCCCC[C@H](C)Oc2ccc(NS(=O)(=O)c3ccc(F)cc3)cc2C1=O,AC50,[2],> 70 µM (inactive)
same,AC50,[3],49.6 µM (active)
same,AC50,Paired box protein Pax-8,15.6 µM (active)
O=S(=O)(c1ccccc1F)N1CC[C@@H]2[C@H]1c1cc(-c3cccc(F)c3)ccc1N[C@@H]2CO,AC50,[4],15.3 µM (active)
same,AC50,[5],49 µM (active)
same,AC50,[6],11.2 µM (active)
same,AC50,[7],5.52 µM (active)
same,AC50,[2],15.6 µM (active)
same,AC50,[8],8.1 µM (active)
same,AC50,[9],18.6 µM (active)
same,AC50,Paired box protein Pax-8,4.09 µM (active)
same,AC50,[10],11.1 µM (active)
C[C@@H]1C=CCCO[C@]12C(=O)N(Cc1ccccc1C(F)(F)F)c1ccccc12,AC50,[1],> 30 µM (inactive)
COc1ccccc1NC(=O)N1CCCCN2[C@H](CO)[C@H](c3ccc(C#Cc4ccccc4)cc3)[C@H]2C1,AC50,[11],1.03 µM (active)
same,AC50,[12],8.11 µM (active)
CCCNC(=O)N1CC2(CCN(Cc3cccc(OC)c3)CC2)c2c(n(C)c3cc(OC)ccc23)[C@@H]1CO,AC50,[11],4.94 µM (active)
same,AC50,[12],21.1 µM (active)
